Read-outs that look alike come from different tables or passages of the source.
Tests used:
Type in all cases: cell-based
[1] = system: spermatozoa; assay: total spermicidal test of IPPF (death of all spermatozoa of 0.2 ml sperm in less than 5 seconds); settings: for MIC: 5 seconds
Description: The MIC of a chemical compound depends on this compound, but also on the conditions in which it is used, i.e. on the galenical form including the composition.
(§1) The test is carried out on at least 6 sperms from various donors, satisfying the following minimal conditions from IPPF:
age of the sample: two hours;
[…] : 50 million spermatozoa;
mobility: 50% of the spermatozoa should move forward fastly when examined at 35°-37° C. in a recent sample;
viscosity: ejaculum conveniently liquefied, not filaceous and homogeneous-looking with the naked eye;
collected in sterile glass tubes hermetically closed, preserved at 37° C.
The MIC of various known spermicidal compounds were determined with the IPPF test. The following results have been obtained by 1 milliliter of composition reacting with 0.2 milliliter of sperm and by determining the minimal concentration of the spermicidal compounds that induces the death of all the spermatozoa in 5 seconds, and this with 6 sperms from various donors.
The same total spermicidal test of IPPF was carried out with 1 milliliter of composition already containing 0.0001% (in weight) of fluoride anion F^- reacting upon 0.2 milliliter of sperm, by determining the minimal concentration of the spermicidal compounds that induces the death of all the spermatozoa in 5 seconds, and this with 6 sperms from various donors.
This test consists in realizing a test identical to tests N^.
Under the same conditions previously described (Tests N^. 1 to 3), various perfluorinated benzalkonium chlorides were used as basic spermicidal compounds. It was thus shown that perfluorinated benzalkonium chlorides have a spermicide activity similar to the one of the mere benzalkonium chloride. Besides, this activity remains identical to itself under the conditions of test N^.
Test N^. 2 was also realized on perfluorinated benzalkonium chloride mixed with another chemical compound capable of emitting ion F^-.

[2] = system: cells; assay: Study of threshold of cytotoxicity (LDO)
[3] = system: spermatozoa; assay: IPPF spermicidal test on galenical preparations after in vitro simulation of in vivo conditions; settings: Test 6, form originally containing 0.45% F^-
Description: as §1
This test in vitro was conducted on galenical preparations including benzalkonium chloride as basic active ingredient, by determining the MIC of this benzalkonium chloride after simulation in vitro of the actual conditions in vivo (extraction, solubilization . . . ).
The percentages correspond to the proportions (in weight) of benzalkonium chloride in the solution used in vitro for the spermicidal test according to IPPF and obtained after simulation, the proportions being measured by titrating using a sample taken off from the solution.
The same conditions as during the comparative test N^. 5 were used, but from galenical forms each originally containing 0.45% (in weight) of fluoride anion F^-.

[4] = system: spermatozoa; assay: as above; settings: Test 5, without activating ingredient
[5] = system: poliomyelitis virus; settings: LiF, where present, 1 mg/l
[6] = system: cells; assay: Cell toxicity (Test 16); settings: cytomegalo virus section
Source text: The following results were obtained:

[7] = Test 1, without F^-, 6 sperms from various donors
[8] = Test 2, composition already containing 0.0001% (in weight) fluoride anion F^-, 6 sperms
[9] = final concentration 20 mg/l, contact time 180 min
[10] = final concentration 50 mg/l, contact time 180 min
[11] = final concentration 100 mg/l, contact time 30 min
[12] = final concentration 100 mg/l, contact time 60 min
[13] = final concentration 100 mg/l, contact time 120 min
[14] = final concentration 100 mg/l, contact time 180 min

F [fluoride anion F^-]
spermicide activity ([1]; IPPF test, at a titer of 5 ppm (5 milligrams per liter), 0.0833333 min): 100% | spermicidal effect in presence of sodium borate ([1]; Test 3, sodium borate to complex ion F^-): totally disappeared | total spermicide activity according to the IPPF test ([1]; solution containing 0.0001% fluoride anion F^- alone): do not have a total spermicide activity

Benzalkonium chloride
threshold of cytotoxicity (LDO) ([2]; after filtration): 0.01% | threshold of cytotoxicity (LDO) ([2]; before filtration): 0.05% | MIC [1, 7]: 0.006 % in weight | MIC [1, 8]: 0.002 % in weight | total spermicide activity according to the IPPF test ([1]; solution containing 0.003% benzalkonium chloride alone): do not have a total spermicide activity | MIC of benzalkonium chloride ([3]; galenical form: cream): 0.0030 % in weight | MIC of benzalkonium chloride ([3]; galenical form: gel): 0.0033 % in weight | MIC of benzalkonium chloride ([3]; galenical form: ovule): 0.0023 % in weight | MIC of benzalkonium chloride ([3]; galenical form: soluble waffle): 0.0017 % in weight | MIC of benzalkonium chloride ([3]; galenical form: tablet): 0.0025 % in weight | MIC of benzalkonium chloride ([3]; galenical form: tampon): 0.0025 % in weight | MIC of benzalkonium chloride ([4]; galenical form: cream): 0.0083 % in weight | MIC of benzalkonium chloride ([4]; galenical form: gel): 0.0080 % in weight | MIC of benzalkonium chloride ([4]; galenical form: ovule): 0.0063 % in weight | MIC of benzalkonium chloride ([4]; galenical form: soluble waffle): 0.0080 % in weight | MIC of benzalkonium chloride ([4]; galenical form: tablet): 0.0095 % in weight | MIC of benzalkonium chloride ([4]; galenical form: tampon): 0.0075 % in weight | Viral titre ([5]; final concentration 10 mg/l, contact time 180 min): ≈ 0 PFU/ml | Viral titre [5, 9]: 0 PFU/ml | Viral titre [5, 10]: 0 PFU/ml | Viral titre [5, 11]: 0 PFU/ml | Viral titre [5, 12]: 0 PFU/ml | Viral titre [5, 13]: 0 PFU/ml | Viral titre [5, 14]: 0 PFU/ml | Cell Toxicity [6]: 0.05%

Benzalkonium fluoride
threshold of cytotoxicity (LDO) ([2]; after filtration): 0.005% | threshold of cytotoxicity (LDO) ([2]; before filtration): 0.01% | Viral titre [5, 9]: 0 PFU/ml | Viral titre ([5]; final concentration 50 mg/l, contact time 120 min): 0 PFU/ml | Viral titre [5, 10]: 0 PFU/ml | Viral titre [5, 11]: 0 PFU/ml | Viral titre [5, 12]: 0 PFU/ml | Viral titre [5, 13]: 0 PFU/ml | Viral titre [5, 14]: 0 PFU/ml | Cell Toxicity [6]: 0.05%

nonoxynol 9
MIC [1, 7]: 0.006 % in weight | MIC [1, 8]: 0.003 % in weight

p-menthanylphenylpolyoxyethylene ether
MIC [1, 7]: 0.006 % in weight | MIC [1, 8]: 0.003 % in weight

Reference: patent publication US5458889A (priority 1986, dated 1995)
